Like-named read-outs stand apart in the source and are kept apart here.
Legend:
[1] = molecular target: T1, full-length human GCN2 enzyme (Homo sapiens, UniProt Q9P2K8); test: GCN2 enzyme inhibition, LanthaScreen TR-FRET Kinase Activity assay (10 μM and 300 μM ATP); type: biochemical; conditions: mean of replicate assays
T1 construct: purchased Carna Bioscience
Protocol: Biological and Pharmacokinetic Testing (a) GCN2 Enzyme Inhibition (10 μM and 300 μM Assays) Assay Protocol Overview:
The inhibitory activity of the Example compounds towards GCN2 enzyme was measured according to the description below, using a LanthaScreen TR-FRET (Time Resolved Fluorescence Resonance Energy Transfer) Kinase Activity assay distributed by ThermoFisher Scientific.
The full-length human GCN2 enzyme (UniProt accession number Q9P2K8) was used for all experiments (Carna Bioscience). The TR-FRET pair was composed of GFP-eIF2α and LanthaScreen Terbium-labeled anti-peIF2α (pSer52) Antibody.
Each example compound was dissolved in DMSO (0.15 mM) and dispensed in a 384-well plate by a D300 dispenser (Tecan) to a final concentration range 3000-0.13 nM using the logarithmic dilution mode in 2 replicates. Full inhibition (3000 nM commercial reference inhibitor) and DMSO vehicle control wells were also included on the same plate. All volumes were normalized to the final DMSO concentration of 2% of the reaction volume. Next, 5 μL of H2O was added to each well of the plate.
The enzyme mixture was prepared to obtain the following concentrations: • GCN2—30 nM • unloaded tRNA—0.3 nM • HEPES (pH=7.0)—100 mM • MgCl2—20 mM; MnCl2—10 mM
The mixture was applied by adding 5 μL to each well of the plate. The enzyme and the tested compound were then incubated at room temperature for 20 min while shaking at 450 rpm.
The substrate mixture was prepared to obtain the following concentrations: • GFP-eIF2α—240 nM • ATP—900 μM or 30 μM • HEPES (pH=7.0)—50 mM • MgCl2—10 mM • MnCl2—5 mM.
The mixture was applied by adding 5 μL to each well of the plate. Thus, the final concentrations of the 15 μL reaction mixture were as follows: • GCN2—10 nM • unloaded tRNA—0.1 nM • GFP-eIF2α—80 nM • ATP—300 μM or 10 μM • HEPES (1 M, pH=7.0)—50 mM • MgCl2—10 mM • MnCl2—5 mM.
The reaction was allowed to proceed at room temperature for 30 min while shaking at 450 rpm.
The antibody mixture was prepared to obtain the following concentrations: • Na2EDTA·2H2O—40 mM, in TR-FRET Dilution Buffer (Life technologies) • Tb—anti-peIF2a antibodies—4 nM.
The mixture was applied by adding 15 μL to each well. The plate was then incubated at room temperature for 60 min while shaking at 450 rpm and then read using Tecan Spark reader using specific TR-FRET filters.
The analysis of the GFP/Tb fluorescence results was conducted with GraphPad Prism to determine IC50 for each of the example compounds using 4-parameter model: log(inhibitor) vs. response-variable slope. IC50 and K, values were calculated in the usual way. The assay was carried out between 1 and 15 times. The results in the table below are the mean results from replicate assays for the compound in question, where applicable.

[2] = Kinetic solubility in PBS buffer pH 7.4; type: physicochemical; conditions: aqueous buffer, kinetic from dmso stock; PBS buffer pH 7.4, 90 minutes at room temperature, from 10 mM DMSO stock
Protocol: The kinetic solubility assay investigates a solubility based on the amount of material which remains in solution after a precipitation process. […] Assay is performed using Multiscreen Vacuum Manifold. A buffer of interest (in standard protocol PBS buffer at pH=7.4 is used) is spiked with stock solution and incubated for 90 minutes at room temperature. After that time solution/suspension is filtrated. The concentration of each compound is determined on the base of prepared calibration curve using UV-VIS spectrophotometry method. The assay is made in triplicate.
Buffer of interest: 0.24 g of KH2PO4, 1.44 g of Na2HPO4, 0.2 g of KCl and 8 g NaCl and dissolve in 1 L distilled H2O; adjust pH to appropriate value (pH 7.4). 190 μl of buffer of interest was dispensed into the wells of a 96 well filter plate, followed by 10 μl of compound (10 mM stock solution in DMSO). The plate was shaken gently at room temperature for 90 minutes at 500 rpm using a BioSan, Plate Shaker-Thermostat, PST-60 HL-4. After 90 minutes, the plate was filtered using a vacuum manifold and vacuum pump. 100 μl of each filtrate and 100 μl acetonitrile was transferred to a 96 well UV-visible light transparent plate and the UV-visible absorption spectrum was measured using a Biotek Synergy 2 multiplate reader from 250-500 nm, interval range 10 nm. The amount of test compound was calculated using a calibration curve prepared by serial dilution of compounds in equivalent amounts of DMSO and acetonitrile.

[3] = read-out: GCN2 IC50 (nM) 10 uM ATP, 10 uM ATP
[4] = read-out: GCN2 IC50 (nM) 300 uM ATP, 300 uM ATP
[5] = read-out: GCN2 Ki (nM) 10 uM ATP, 10 uM ATP
[6] = read-out: GCN2 Ki (nM) 300 uM ATP, 300 uM ATP

T1 sequence (Q9P2K8 whole entry): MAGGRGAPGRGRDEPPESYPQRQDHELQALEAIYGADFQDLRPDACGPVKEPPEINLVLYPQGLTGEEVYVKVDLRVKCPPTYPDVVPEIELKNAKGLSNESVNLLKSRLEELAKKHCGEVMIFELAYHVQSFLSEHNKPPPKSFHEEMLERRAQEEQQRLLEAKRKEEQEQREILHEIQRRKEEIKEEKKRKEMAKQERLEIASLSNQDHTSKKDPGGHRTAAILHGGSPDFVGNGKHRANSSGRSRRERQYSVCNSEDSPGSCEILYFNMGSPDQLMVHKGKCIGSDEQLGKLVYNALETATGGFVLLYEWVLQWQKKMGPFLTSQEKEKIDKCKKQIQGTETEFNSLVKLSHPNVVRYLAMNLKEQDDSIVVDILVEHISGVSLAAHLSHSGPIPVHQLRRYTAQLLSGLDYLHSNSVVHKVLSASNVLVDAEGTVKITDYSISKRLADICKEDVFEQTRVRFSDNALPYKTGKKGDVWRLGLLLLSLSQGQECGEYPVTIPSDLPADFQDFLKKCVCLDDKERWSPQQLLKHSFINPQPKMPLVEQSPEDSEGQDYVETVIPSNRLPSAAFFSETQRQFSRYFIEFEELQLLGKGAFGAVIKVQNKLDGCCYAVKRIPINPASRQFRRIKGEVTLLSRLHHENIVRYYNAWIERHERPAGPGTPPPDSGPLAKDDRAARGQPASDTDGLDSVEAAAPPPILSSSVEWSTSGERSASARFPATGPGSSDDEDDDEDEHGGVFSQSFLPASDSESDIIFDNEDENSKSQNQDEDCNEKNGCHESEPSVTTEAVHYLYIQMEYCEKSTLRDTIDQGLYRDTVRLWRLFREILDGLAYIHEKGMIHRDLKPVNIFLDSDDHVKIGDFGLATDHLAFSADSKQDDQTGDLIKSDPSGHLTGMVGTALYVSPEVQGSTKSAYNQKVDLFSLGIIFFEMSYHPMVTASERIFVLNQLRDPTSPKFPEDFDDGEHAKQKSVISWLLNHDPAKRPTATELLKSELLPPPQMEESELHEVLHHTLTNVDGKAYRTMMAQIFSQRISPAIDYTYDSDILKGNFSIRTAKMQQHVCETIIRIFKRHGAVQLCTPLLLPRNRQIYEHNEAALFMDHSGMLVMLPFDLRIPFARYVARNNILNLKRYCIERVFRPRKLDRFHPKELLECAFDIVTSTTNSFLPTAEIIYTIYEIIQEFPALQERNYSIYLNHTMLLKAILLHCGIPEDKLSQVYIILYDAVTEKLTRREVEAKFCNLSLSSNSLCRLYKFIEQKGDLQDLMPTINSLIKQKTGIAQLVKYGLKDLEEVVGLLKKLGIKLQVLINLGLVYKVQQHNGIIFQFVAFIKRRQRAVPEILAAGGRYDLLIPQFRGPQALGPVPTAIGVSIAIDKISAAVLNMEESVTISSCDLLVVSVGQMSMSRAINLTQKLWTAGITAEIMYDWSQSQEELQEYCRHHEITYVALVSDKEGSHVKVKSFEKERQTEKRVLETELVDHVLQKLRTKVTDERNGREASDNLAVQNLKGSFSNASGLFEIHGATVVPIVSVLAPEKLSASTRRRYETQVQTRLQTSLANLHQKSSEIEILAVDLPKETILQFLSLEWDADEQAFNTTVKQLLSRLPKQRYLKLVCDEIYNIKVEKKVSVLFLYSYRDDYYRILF

Row | Structure (SMILES) | IC50 [1, 3] | IC50 [1, 4] | Ki [1, 5] | Ki [1, 6] | solubility kinetic at 90 min [2]
1 | COc1ncc(Cl)cc1S(=O)(=O)Nc1nccc(C#Cc2cnc(N)nc2)c1Cl [Example 2, N-{4-[2-(2-aminopyrimidin-5-yl)ethynyl]-3-chloropyridin-2-yl}-5-chloro-2-methoxypyridine-3-sulfonamide] | 8.1 nM | 79 nM | 2.6 nM | 1.2 nM | 226 µg/mL
2 | COc1ncc(Cl)cc1S(=O)(=O)Nc1nccc(C#Cc2cnc(N)c3ncccc23)c1F [Example 4, N-{4-[2-(8-amino-1,7-naphthyridin-5-yl)ethynyl]-3-fluoropyridin-2-yl}-5-chloro-2-methoxypyridine-3-sulfonamide] | 2.9 nM | 17.6 nM | 0.9 nM | 0.3 nM | 29.5 µg/mL
3 | COc1ncc(Cl)cc1S(=O)(=O)Nc1nccc(C#Cc2cncc3nccnc23)c1F [Example 5, 5-chloro-N-{4-[2-(pyrido[3,4-b]pyrazin-8-yl)ethynyl]-3-fluoropyridin-2-yl}-2-methoxypyridine-3-sulfonamide] | 7.8 nM | 186 nM | 2.5 nM | 2.8 nM | 223 µg/mL
4 | COc1ncc(Cl)cc1S(=O)(=O)Nc1nccc(C#Cc2cncc3cccnc23)c1F [Example 6, 5-chloro-N-{4-[2-(1,6-naphthyridin-8-yl)ethynyl]-3-fluoropyridin-2-yl}-2-methoxypyridine-3-sulfonamide] | 6.7 nM | 49.3 nM | 2.1 nM | 0.8 nM | 40.3 µg/mL
5 | COc1ncc(Cl)cc1S(=O)(=O)Nc1nccc(C#Cc2cnn3c(N)ccnc23)c1F [Example 7, N-{4-[2-(7-aminopyrazolo[1,5-a]pyrimidin-3-yl)ethynyl]-3-fluoropyridin-2-yl}-5-chloro-2-methoxypyridine-3-sulfonamide] | 7.9 nM | 105 nM | 2.5 nM | 1.6 nM | 216 µg/mL
6 | COc1ncc(Cl)cc1S(=O)(=O)Nc1nccc(C#Cc2cnc3c(N)cccn23)c1F [Example 8, N-{4-[2-(8-aminoimidazo[1,2-a]pyridin-3-yl)ethynyl]-3-fluoropyridin-2-yl}-5-chloro-2-methoxypyridine-3-sulfonamide] | 9.9 nM | 335 nM | 3.1 nM | 5.1 nM | 214 µg/mL
7 | COc1ncc(Cl)cc1S(=O)(=O)Nc1nccc(C#Cc2cnc3ccccc3n2)c1F [Example 9, 5-chloro N-{4-[2-(quinoxalin-2-yl)ethynyl]-3-fluoropyridin-2-yl}-2-methoxypyridine-3-sulfonamide] | 7.5 nM | 112 nM | 2.4 nM | 1.7 nM | 134 µg/mL
8 | COc1ncc(Cl)cc1S(=O)(=O)Nc1ncc(F)c(C#Cc2cnc(N)nc2)c1F [Example 10, N-{4-[2-(2-aminopyrimidin-5-yl)ethynyl]-3,5-difluoropyridin-2-yl}-5-chloro-2-methoxypyridine-3-sulfonamide] |  |  |  |  | 138 µg/mL
9 | COc1ncc(Cl)cc1S(=O)(=O)Nc1nccc(C#Cc2cnc3c(N)nccn23)c1F [Example 11, N-{4-[2-(8-aminoimidazo[1,2-a]pyrazin-3-yl)ethynyl]-3-fluoropyridin-2-yl}-5-chloro-2-methoxypyridine-3-sulfonamide] | 2.3 nM | 71.8 nM | 0.7 nM | 1.1 nM | 216 µg/mL
10 | COc1ccc(Cl)cc1S(=O)(=O)Nc1nccc(C#Cc2cnc3[nH]ncc3c2)c1F [Example 12, 5-chloro-N-[3-fluoro-4-(2-{1H-pyrazolo[3,4-b]pyridin-5-yl}ethynyl)pyridin-2-yl]-2-methoxybenzene-1-sulfonamide] |  | 257 nM |  | 3.9 nM | 161 µg/mL
11 | COc1ccc(Cl)cc1S(=O)(=O)Nc1nccc(C#Cc2cnc(N)nc2)c1F [Example 13, N-{4-[2-(2-aminopyrimidin-5-yl)ethynyl]-3-fluoropyridin-2-yl}-5-chloro-2-methoxybenzene-1-sulfonamide] |  | 611 nM |  | 9.3 nM | 109 µg/mL
12 | O=S(=O)(Nc1nccc(C#Cc2cnc3[nH]ncc3c2)c1F)c1cc(Cl)ccc1Cl [Example 14, 2,5-dichloro-N-[3-fluoro-4-(2-{1H-pyrazolo[3,4-b]pyridin-5-yl}ethynyl)pyridin-2-yl]benzene-1-sulfonamide] |  | 236 nM |  | 3.6 nM | 24.7 µg/mL
13 | Nc1ncc(C#Cc2ccnc(NS(=O)(=O)c3cc(Cl)ccc3Cl)c2F)cn1 [Example 15, N-{4-[2-(2-aminopyrimidin-5-yl)ethynyl]-3-fluoropyridin-2-yl}-2,5-dichlorobenzene-1-sulfonamide] |  | 465 nM |  | 7.1 nM | 224 µg/mL
14 | Nc1ncc(C#Cc2ccnc(NS(=O)(=O)c3cc(Cl)cc(CO)c3Cl)c2F)cn1 [Example 16, N-{4-[2-(2-aminopyrimidin-5-yl)ethynyl]-3-fluoropyridin-2-yl}-2,5-dichloro-3-(hydroxymethyl)benzene-1-sulfonamide] |  | 111 nM |  | 1.7 nM | 218 µg/mL
15 | O=S(=O)(Nc1nccc(C#Cc2cnc3[nH]ncc3c2)c1F)c1cc(Cl)cc(CO)c1Cl [Example 17, 2,5-dichloro-N-[3-fluoro-4-(2-{1H-pyrazolo[3,4-b]pyridin-5-yl}ethynyl)pyridin-2-yl]-3-(hydroxymethyl)benzene-1-sulfonamide] |  | 59 nM |  | 0.9 nM | 250 µg/mL
16 | COc1ncc(Cl)cc1S(=O)(=O)Nc1nccc(C#Cc2cncc3ncn(C)c23)c1F [Example 18, 5-chloro-N-[3-fluoro-4-(2-{1-methyl-1H-imidazo[4,5-c]pyridin-7-yl}ethynyl)pyridin-2-yl]-2-methoxypyridine-3-sulfonamide] | 11.3 nM | 365 nM | 3.6 nM | 5.6 nM | 24.3 µg/mL
17 | COc1ncc(Cl)cc1S(=O)(=O)Nc1nccc(C#Cc2cncc3ncsc23)c1F [Example 19, 5-chloro-N-[3-fluoro-4-(2-{[1,3]thiazolo[4,5-c]pyridin-7-yl}ethynyl)pyridin-2-yl]-2-methoxypyridine-3-sulfonamide] | 12 nM | 384 nM | 3.8 nM | 5.9 nM | 103 µg/mL
18 | COc1nc(N)ncc1C#Cc1ccnc(NS(=O)(=O)c2cc(Cl)cnc2OC)c1F [Example 35, N-{4-[2-(2-amino-4-methoxypyrimidin-5-yl)ethynyl]-3-fluoropyridin-2-yl}-5-chloro-2-methoxypyridine-3-sulfonamide] |  | 328 nM |  | 5 nM | 

From patent US11945799B2, “4-ethynylpyridine derivatives useful as GCN2 inhibitors” (IP2IPO INNOVATIONS LIMITED, priority 2020, dated 2024)
